From US12195427B2, “MASP-2 inhibitors and methods of use” (priority 2018, dated 2025)
Counter-ions that a name gives are not always drawn.

Assays:
[1] = target: MASP-2 (CCP1-CCP2-SP) (Homo sapiens (Human), UniProt O00187); assay: Enzymatic Assay for MASP-2 (fluorogenic substrate); type: biochemical
[2] = target: MASP-2 CCP2-SP (Homo sapiens (Human), UniProt O00187); assay: MASP-2 co-crystallization, X-ray crystallography and structure analysis (H-bonds, van der Waals contacts); parameters: van der Waals contact distance, MASP-2 HIS 483 atom CD2 / van der Waals contact distance, MASP-2 HIS 483 atom NE2 / van der Waals contact distance, SER 654 C to compound atom / van der Waals contact distance, SER 654 O to compound atom / van der Waals contact distance, TRP 655 C to compound atom / van der Waals contact distance, MASP-2 GLY 528 atom CA / van der Waals contact distance TRP 655 atom CZ3 / van der Waals contact distance TRP 655 atom N / van der Waals contact distance TRP 655 atom CE3 / van der Waals contact distance GLY 656 atom C / van der Waals contact distance GLY 656 atom CA / van der Waals contact distance GLY 656 atom O / van der Waals contact distance, MASP-2 TYR 607 atom CD1 / van der Waals contact distance, MASP-2 PRO 606 atom O / d(C3,CA1) / d(CA1,N1)2 / d(H4,O1) / d(H4,O2) / d(O1,O2) / d(CA1,O2) / d(CA6,O1) / d(CA6,O2) / d(CA1,C5) / d(O2,H3) / d(N2,C2) / d(CA5,N2) / d(N2,C4) / d(N2,C6) / d(N2,CA3) / d(N2,O3) / d(O4,H2): unit not given beside the values; conditions: for H-bond distance to MASP-2 ASP 627 atom OD2: ASP 627 OD2; for H-bond distance to MASP-2 SER 654 atom O: SER 654 O; for H-bond distance to MASP-2 SER 657 atom O: SER 657 O; for van der Waals contact distance TRP 655 atom CE3: MASP-2 TRP 655 CE3, compound atom in line below; for van der Waals contact distance GLY 656 atom O: MASP-2 GLY 656 O; for van der Waals contact distance SER 657 atom C: MASP-2 SER 657 C, columns c12-c13 (inferred)
Chain of MASP-2 CCP2-SP (O00187 445-686): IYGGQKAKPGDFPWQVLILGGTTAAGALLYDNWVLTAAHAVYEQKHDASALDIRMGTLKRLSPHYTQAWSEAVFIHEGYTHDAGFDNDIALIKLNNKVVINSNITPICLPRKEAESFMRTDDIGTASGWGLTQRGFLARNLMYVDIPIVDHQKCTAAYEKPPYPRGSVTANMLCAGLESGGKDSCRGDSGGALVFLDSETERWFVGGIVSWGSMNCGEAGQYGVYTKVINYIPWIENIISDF
Chain of MASP-2 CCP2-SP (O00187 364-432 partner): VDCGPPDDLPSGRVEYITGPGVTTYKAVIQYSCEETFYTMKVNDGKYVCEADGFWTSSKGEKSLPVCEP
Method in brief: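 Inhibitor complexes were obtained by soaking crystals of E. coli-expressed human MASP-2 CCP2-SP constructs, then flash-cooling in liquid nitrogen. Structures solved by molecular replacement (1Q3X search model) from synchrotron diffraction; where several poses existed, only one was analyzed, and nonbonded contacts listed can include H-bonds.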

[3] = tested on: Lectin Pathway; assay: Lectin Pathway Activation Assay in Human Serum (mannan-coated ELISA, C3c detection); type: biochemical; conditions: 1% human serum
Description: Microtiter ELISA plate was coated with mannan from Saccharomyces cerevisiae (Sigma-Aldrich, M7504) for overnight at 4° C. in coating buffer [15 mM Na2CO3, 35 mM NaHCO3].

Chain of MASP-2 (CCP1-CCP2-SP) (O00187 445-686): as the sequence (O00187 445-686) above

SMILES	Ki [1]	H-bond distance to MASP-2 ASP 627 atom OD2 ([2]; Table A1 (H-Bonds))	H-bond distance to MASP-2 SER 654 atom O ([2]; Table A1 (H-Bonds))	H-bond distance to MASP-2 SER 657 atom O ([2]; Table A1 (H-Bonds))	van der Waals contact distance, MASP-2 HIS 483 atom CD2 ([2]; Table A2-1)	van der Waals contact distance TRP 655 atom CE3 ([2]; Table A2-13)	van der Waals contact distance GLY 656 atom O ([2]; Table A2-14)	van der Waals contact distance SER 657 atom C ([2]; Table A2-14)	further results
C[C@H](NC(=O)[C@H](N)CCc1ccccc1)C(=O)NCc1ccc(N)nc1 [compound 1007]	< 500 nM	3.27	2.94	2.88	3.38	3.69	3.85	3.87	H-bond distance to MASP-2 SER 628 atom O ([2]; Table A1 (H-Bonds), SER 628 O): 2.59; van der Waals contact distance, MASP-2 PHE 529 atom CD1 ([2]; Table A2-3): 3.83; van der Waals contact distance, MASP-2 PHE 529 atom CZ ([2]; Table A2-3): 3.82; van der Waals contact distance, MASP-2 TYR 607 atom CD1 ([2]; Table A2-4): 3.84; van der Waals contact distance, MASP-2 amino acid atom to compound atom ([2]; Table A2-9, ARG 630, AA atoms CG, CZ): 3.61; van der Waals contact distance, TRP 655 CA to compound atom ([2]; Table A2-12): 3.31; van der Waals contact distance GLY 656 atom C ([2]; Table A2-13, MASP-2 GLY 656 C): 3.74; van der Waals contact distance TRP 655 atom CZ3 ([2]; Table A2-13, MASP-2 TRP 655 CZ3): 3.78; van der Waals contact distance GLY 656 atom N ([2]; Table A2-14, MASP-2 GLY 656 N): 3.71
C[C@H](NC(=O)[C@H]1C[C@@H](c2ccccc2)CN1)C(=O)NCc1ccc2c(N)nccc2c1 [compound 1089]	< 500 nM	2.8	2.93	2.93	3.71	3.59	2.95	3.86	H-bond distance to MASP-2 GLY 656 atom N ([2]; Table A1 (H-Bonds), GLY 656 N): 3.3; H-bond distance to MASP-2 GLY 656 atom O ([2]; Table A1 (H-Bonds), GLY 656 O): 2.82; van der Waals contact distance, MASP-2 HIS 483 atom NE2 ([2]; Table A2-1): 3.83; van der Waals contact distance, MASP-2 PRO 606 atom O ([2]; Table A2-4): 3.4; van der Waals contact distance, SER 654 O to compound atom ([2]; Table A2-12): 3.57
C[C@H](NC(=O)[C@H]1C[C@@H](c2ccccc2)CCN1)C(=O)NCc1ccc(C(=N)N)cc1 [compound 1230, (2R,4S)—N—((S)-1-((4-Carbamimidoylbenzyl)amino)-1-oxopropan-2-yl)-4-phenylpiperidine-2-carboxamide Dihydrochloride]	–	–	–	–	–	–	–	–	IC50 [3]: < 50 nM
Cc1nc(N)ccc1CNC(=O)[C@H](C)NC(=O)[C@H]1C[C@@H](c2cccc(CN)c2)CN1 [compound 1291, (2R,4S)—N—((S)-1-(((6-Amino-2-methylpyridin-3-yl)methyl)amino)-1-oxopropan-2-yl)-4-(3-(aminomethyl)phenyl)pyrrolidine-2-carboxamide]	500 to 2500 nM	–	–	–	–	–	–	–	–
C[C@H](NC(=O)[C@H](N)CCc1ccccc1)C(=O)NCc1cc(Cl)ccc1-n1cnnn1 [compound 1325, (R)-2-amino-N—((S)-1-((5-chloro-2-(1H-tetrazol-1-yl)benzyl)amino)-1-oxopropan-2-yl)-4-phenylbutanamide]	500 to 2500 nM	–	–	–	–	–	–	–	–
